In the experiment the target is T1, G-actin (rabbit skeletal muscle) (Oryctolagus cuniculus, UniProt P68135).
T1 construct: gene ACTA1
Nature of the experiment: fluorescence of NPM reacted with free Cys374 after PtCl4^[…]- incubation; Scatchard approach, least-square fit. The experiment is classed as binding.

Molecules are shown by their SMILES. pKd: −log10 of the molar value.

The results in this text go back to PMC2364971, “A Spectroscopic Study on PtCl4^(2−) Binding to Rabbit Skeletal Muscle G-Actin” (Metal-Based Drugs, 1995).

As for `[Cl][Pt-2]([Cl])([Cl])[Cl]` [PtCl4^2−], the pKd – broadly, −log10 of the Kd, conventionally taken in molar units – was 7.00.
